Source: ChEMBL document CHEMBL3526090, “Pharmacokinetic mechanism involved in the prolonged high retention of laninamivir in mouse respiratory tissues after intranasal administration of its prodrug laninamivir octanoate” (Drug Metab Dispos, 2013)

Experiments:
Settings in all cases: in vivo, inhaled_or_intranasal
Blood = experiment: Drug uptake in BALB/cAnNCrlCrlj mouse pulmonary arterial blood at 0.5 umol/kg administered intranasally measured at 24 hrs by microautoradiographic analysis; assay type: ADME, tissue-based, BALB/cAnNCrlCr
[1] = Drug uptake in BALB/cAnNCrlCrlj mouse terminal bronchiole at 0.5 umol/kg administered intranasally measured at 24 hrs by microautoradiographic analysis; assay type: ADME, tissue-based, BALB/cAnNCrlCr
[2] = Drug uptake in BALB/cAnNCrlCrlj mouse alveolar bronchiole at 0.5 umol/kg administered intranasally measured at 24 hrs by microautoradiographic analysis; assay type: ADME, BALB/cAnNCrlCr
[3] = Drug uptake in BALB/cAnNCrlCrlj mouse cuboidal epithelial cells at 0.5 umol/kg administered intranasally measured at 24 hrs by microautoradiographic analysis; assay type: ADME, cell-based, BALB/cAnNCrlCr, Epithelial cell
[4] = Drug uptake in BALB/cAnNCrlCrlj mouse bronchial gland at 0.5 umol/kg administered intranasally measured at 24 hrs by microautoradiographic analysis; assay type: ADME, BALB/cAnNCrlCr
[5] = Drug uptake in BALB/cAnNCrlCrlj mouse Goblet cells at 0.5 umol/kg administered intranasally measured at 24 hrs by microautoradiographic analysis; assay type: ADME, BALB/cAnNCrlCr
Lung = experiment: Drug uptake in lung of BALB/cAnNCrlCrlj mouse at 0.5 umol/kg administered intranasally measured at 0.25 hrs by microautoradiographic analysis; assay type: ADME, tissue-based, BALB/cAnNCrlCr
[6] = Drug uptake in bronchi of BALB/cAnNCrlCrlj mouse at 0.5 umol/kg administered intranasally measured at 0.25 hrs by microautoradiographic analysis; assay type: ADME, BALB/cAnNCrlCr, Bronchus
[7] = Drug uptake in BALB/cAnNCrlCrlj mouse ciliated columnar epithelial cells at 0.5 umol/kg administered intranasally measured at 24 hrs by microautoradiographic analysis; assay type: ADME, cell-based, BALB/cAnNCrlCr, Epithelial cell
[8] = Drug uptake in BALB/cAnNCrlCrlj mouse pulmonary alveoli at 0.5 umol/kg administered intranasally measured at 24 hrs by microautoradiographic analysis; assay type: ADME, BALB/cAnNCrlCr

Measured: Drug uptake

CCCCCCCC(=O)OC[C@@H](O)[C@@H](OC)[C@@H]1OC(C(=O)O)=C[C@H](N[14C](=N)N)[C@H]1NC(C)=O
Active: all assays above
